Reference: PubChem BioAssay AID248 (DTP/NCI, 2004)
Inconclusive results and toxic doses are left out. Rule as the data show it: active = T/C of 150% or more; inactive = T/C below 125%.

System: L1210 leukemia ip in BDF1 mice, survival T/C
Assay: NCI In Vivo Anticancer Drug Screen. Data for tumor model L1210 Leukemia (intraperitoneal) in B6D2F1 (BDF1) mice
Settings: endpoint: mean survival time, higher = longer survival
Method in brief: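 Antitumor effect is assessed in tumor-bearing animals. Survival in the compound arm is compared with a vehicle-dosed control arm and expressed as their quotient.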

[1] = dose: 100.0 mg/kg/injection, schedule: Q01DX009 (ip), vehicle: Klucel (hydroxypropylcellulose) (HPC)
[2] = dose: 100.0 mg/kg/injection, schedule: Q04DX003 (ip), vehicle: Klucel (hydroxypropylcellulose) (HPC)
[3] = dose: 200.0 mg/kg/injection, schedule: Q01DX009 (ip), vehicle: Klucel (hydroxypropylcellulose) (HPC)
[4] = dose: 400.0 mg/kg/injection, schedule: Q01DX009 (ip), vehicle: Klucel (hydroxypropylcellulose) (HPC)
[5] = dose: 100.0 mg/kg/injection, schedule: Q01DX001 (ip), vehicle: carboxymethylcellulose (CMC)
[6] = dose: 200.0 mg/kg/injection, schedule: Q01DX001 (ip), vehicle: carboxymethylcellulose (CMC)
[7] = dose: 400.0 mg/kg/injection, schedule: Q01DX001 (ip), vehicle: carboxymethylcellulose (CMC)
[8] = dose: 100.0 mg/kg/injection, schedule: Q04DX003 (ip), vehicle: saline with Tween-80
[9] = dose: 200.0 mg/kg/injection, schedule: Q04DX003 (ip), vehicle: saline with Tween-80
[10] = dose: 400.0 mg/kg/injection, schedule: Q04DX003 (ip), vehicle: saline with Tween-80

Measured: T/C

Cc1cc(C)c(S(=O)(=O)c2c(C)cc(C)c([N+](=O)[O-])c2C)c(C)c1[N+](=O)[O-]
inactive: [1] 98 % of control | [2] 92 % of control | [3] 88 % of control | dose: 200.0 mg/kg/injection, schedule: Q04DX003 (ip), vehicle: Klucel (hydroxypropylcellulose) (HPC) 93 % of control | [4] 88 % of control | dose: 400.0 mg/kg/injection, schedule: Q04DX003 (ip), vehicle: Klucel (hydroxypropylcellulose) (HPC) 90 % of control

O=C(Nc1cccc2ccccc12)N1CCCc2ccccc21
inactive: dose: 50.0 mg/kg/injection, schedule: Q01DX001 (ip), vehicle: carboxymethylcellulose (CMC) 88 % of control | [5] 98 % of control | [6] 95 % of control | [7] 90 % of control

CN(C)C(=O)Sc1c(Cl)cc(Cl)cc1S(=O)(=O)F
inactive: [1] 97 % of control | [3] 100 % of control | [4] 97 % of control

CC(=O)OC(OC(C)=O)c1ccc([N+](=O)[O-])o1
inactive: dose: 12.5 mg/kg/injection, schedule: Q04DX003 (ip), vehicle: Klucel (hydroxypropylcellulose) (HPC) 101 % of control | dose: 25.0 mg/kg/injection, schedule: Q04DX003 (ip), vehicle: Klucel (hydroxypropylcellulose) (HPC) 87 % of control | dose: 50.0 mg/kg/injection, schedule: Q04DX003 (ip), vehicle: Klucel (hydroxypropylcellulose) (HPC) 98 % of control | [2] 96 % of control

NCCc1c[nH]c2ccccc12
inactive: dose: 50.0 mg/kg/injection, schedule: Q01DX001 (ip), vehicle: saline 104 % of control | dose: 100.0 mg/kg/injection, schedule: Q01DX001 (ip), vehicle: saline 102 % of control | [8] 104 % of control | dose: 200.0 mg/kg/injection, schedule: Q01DX001 (ip), vehicle: saline 91 % of control | [9] 93 % of control | [10] 110 % of control

[O-][n+]1ccc(Cl)cc1
inactive: dose: 100.0 mg/kg/injection, schedule: Q01DX009 (ip), vehicle: saline 100 % of control | dose: 200.0 mg/kg/injection, schedule: Q01DX009 (ip), vehicle: saline 96 % of control | dose: 400.0 mg/kg/injection, schedule: Q01DX009 (ip), vehicle: saline 94 % of control

O=C(c1ccccc1)C1OC1c1ccc([N+](=O)[O-])cc1 (centres undefined)
inactive: dose: 100.0 mg/kg/injection, schedule: Q01DX001 (ip), vehicle: saline with Tween-80 91 % of control | [8] 100 % of control | dose: 200.0 mg/kg/injection, schedule: Q01DX001 (ip), vehicle: saline with Tween-80 88 % of control | [9] 103 % of control | dose: 400.0 mg/kg/injection, schedule: Q01DX001 (ip), vehicle: saline with Tween-80 88 % of control | [10] 100 % of control

O=C(N/N=C/c1ccccc1O)C(O)C(O)C(O)C(O)CO (centres undefined)
inactive: dose: 100.0 mg/kg/injection, schedule: Q04DX002 (ip), vehicle: saline with Tween-80 92 % of control | dose: 200.0 mg/kg/injection, schedule: Q04DX002 (ip), vehicle: saline with Tween-80 106 % of control | dose: 400.0 mg/kg/injection, schedule: Q04DX002 (ip), vehicle: saline with Tween-80 95 % of control

O=C1OC2(c3ccc(O)cc3Oc3cc(O)ccc32)C2C3CCC(O3)C12 (centres undefined)
inactive: dose: 100.0 mg/kg/injection, schedule: Q04DX002 (ip), vehicle: Klucel (hydroxypropylcellulose) (HPC) 100 % of control | dose: 200.0 mg/kg/injection, schedule: Q04DX002 (ip), vehicle: Klucel (hydroxypropylcellulose) (HPC) 118 % of control

CCOP(=O)(OCC)Oc1ccc([N+](=O)[O-])c(CC)c1
inactive: dose: 5.0 mg/kg/injection, schedule: Q01DX001 (ip), vehicle: saline 100 % of control | dose: 10.0 mg/kg/injection, schedule: Q01DX001 (ip), vehicle: saline 100 % of control

COc1cc2c(c3ccccc13)CCCC2=O
inactive: [8] 103 % of control | [9] 93 % of control | [10] 92 % of control

CNC(=O)NC1C(O)COC(OC)C1O (centres undefined)
inactive: dose: 6.25 mg/kg/injection, schedule: Q01DX009 (ip), vehicle: saline with Tween-80 101 % of control | dose: 12.5 mg/kg/injection, schedule: Q01DX009 (ip), vehicle: saline with Tween-80 101 % of control | dose: 25.0 mg/kg/injection, schedule: Q01DX009 (ip), vehicle: saline with Tween-80 105 % of control | dose: 50.0 mg/kg/injection, schedule: Q01DX009 (ip), vehicle: saline with Tween-80 100 % of control

CCCCCC(C)(O)CCCCC
inactive: [5] 101 % of control | [6] 97 % of control | [7] 97 % of control
